Assay results taken from ChEMBL document CHEMBL5252617, “Design, synthesis and biological evaluation of novel N-(methyl-d3) pyridazine-3-carboxamide derivatives as TYK2 inhibitors” (Bioorg Med Chem Lett, 2023).
Calls of active or inactive are those of the source. The rule behind the calls is not given here.

Tests used:
[1] = Stability in mouse liver microsomes assessed as parent compound remaining measured after 60 mins; format: ADME, Microsome; settings: read-out: Stability
[2] = target: T1, Non-receptor tyrosine-protein kinase TYK2 (Homo sapiens, UniProt P29597); experiment: Inhibition of TYK2 dependent IFNalpha-stimulated STAT3 phosphorylation in human Jurkat cells; format: cell-based
T1 sequence (P29597 whole entry): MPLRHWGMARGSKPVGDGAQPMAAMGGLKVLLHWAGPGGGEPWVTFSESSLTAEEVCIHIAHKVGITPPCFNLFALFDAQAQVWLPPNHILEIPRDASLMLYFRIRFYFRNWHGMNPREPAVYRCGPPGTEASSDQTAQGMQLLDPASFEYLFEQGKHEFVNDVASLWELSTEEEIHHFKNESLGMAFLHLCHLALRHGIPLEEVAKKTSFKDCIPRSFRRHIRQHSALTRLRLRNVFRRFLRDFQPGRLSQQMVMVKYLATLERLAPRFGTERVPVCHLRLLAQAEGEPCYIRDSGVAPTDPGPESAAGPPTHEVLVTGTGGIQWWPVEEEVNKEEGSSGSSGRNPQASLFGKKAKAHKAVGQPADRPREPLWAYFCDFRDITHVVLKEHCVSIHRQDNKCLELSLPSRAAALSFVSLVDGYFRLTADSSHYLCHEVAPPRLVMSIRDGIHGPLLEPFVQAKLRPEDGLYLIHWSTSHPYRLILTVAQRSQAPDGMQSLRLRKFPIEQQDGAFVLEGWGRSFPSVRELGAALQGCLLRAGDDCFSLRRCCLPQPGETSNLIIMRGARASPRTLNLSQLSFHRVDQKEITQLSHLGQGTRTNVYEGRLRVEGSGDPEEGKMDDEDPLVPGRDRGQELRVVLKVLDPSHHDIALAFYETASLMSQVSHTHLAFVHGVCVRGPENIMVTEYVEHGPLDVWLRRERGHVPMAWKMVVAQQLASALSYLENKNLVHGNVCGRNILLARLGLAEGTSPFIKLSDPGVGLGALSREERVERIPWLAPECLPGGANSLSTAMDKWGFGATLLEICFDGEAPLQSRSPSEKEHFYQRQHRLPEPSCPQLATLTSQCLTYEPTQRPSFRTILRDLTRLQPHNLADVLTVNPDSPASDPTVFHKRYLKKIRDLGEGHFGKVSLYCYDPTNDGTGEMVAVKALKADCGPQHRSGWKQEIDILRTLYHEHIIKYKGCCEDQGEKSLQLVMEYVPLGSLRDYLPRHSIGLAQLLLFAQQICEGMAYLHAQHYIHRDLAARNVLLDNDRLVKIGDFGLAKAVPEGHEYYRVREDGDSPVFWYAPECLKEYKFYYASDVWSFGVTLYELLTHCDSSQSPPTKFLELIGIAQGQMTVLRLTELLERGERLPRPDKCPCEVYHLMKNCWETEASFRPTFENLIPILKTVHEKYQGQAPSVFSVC

[3] = Stability in human liver microsomes assessed as parent compound remaining measured after 60 mins; format: ADME, Microsome; settings: read-out: Stability
[4] = target: T1, Non-receptor tyrosine-protein kinase TYK2; experiment: Binding affinity to TYK2 JH2 domain (unknown origin) assessed as melting temperature at 1 uM by thermal shift assay; settings: tested as the 2H-labelled form
[5] = target: T1, Non-receptor tyrosine-protein kinase TYK2; experiment: Binding affinity to TYK2 JH2 domain (unknown origin) assessed as melting temperature at 10 uM by thermal shift assay; settings: tested as the 2H-labelled form
[6] = tested on: Mus musculus; experiment: Anti-colitis activity against anti-CD40 induced immunodeficient Rag1 KO colitis mouse model assessed as decrease in colon weight at 15 to 30 mg/kg, po bid; format: functional, organism-based; settings: dose 15-30 mg/kg, tested as the 2H-labelled form

Structure (SMILES) | remaining at 1 h [1] | IC50 [2] | remaining at 1 h [3] | Tm [4] | Tm [5] | Activity [6]
[2H]C([2H])([2H])NC(=O)c1nnc(NC(=O)C2CC2)cc1Nc1cccc(C(=O)Nc2ccc(C3CCCNC3=O)cc2)c1OC (centres undefined) | 44.8% | 1.8 nM | 41.8% |  |  | 
CNC(=O)c1nnc(NC(=O)C2CC2)cc1Nc1cccc(C(=O)Nc2cccc(-n3ccccc3=O)c2)c1OC |  |  |  | 52.9 °C | 57.6 °C | 
CNC(=O)c1nnc(NC(=O)C2CC2)cc1Nc1cccc(C(=O)Nc2ccc(NC(=O)C3CCCC3)cc2)c1OC |  |  |  | 52.7 °C | 56.2 °C | 
CNC(=O)c1nnc(NC(=O)C2CC2)cc1Nc1cccc(C(=O)Nc2ccc(-n3ccnc3)cc2)c1OC |  |  |  | 52.2 °C | 54 °C | 
CNC(=O)c1nnc(NC(=O)C2CC2)cc1Nc1cccc(C(=O)Nc2ccc(N3CCCC3=O)cc2)c1OC |  |  |  | 56.5 °C | 61.9 °C | 
[2H]C([2H])([2H])NC(=O)c1nnc(NC(=O)C2CC2)cc1Nc1cccc(C(=O)Nc2ccc(N3CCCCC3)cc2)c1OC | 9% | 12 nM | 1.91% |  |  | 
CNC(=O)c1nnc(NC(=O)C2CC2)cc1Nc1cccc(C(=O)Nc2ccc(-c3cccc(=O)[nH]3)cc2)c1OC |  |  |  | 52.5 °C | 56.5 °C | 
[2H]C([2H])([2H])NC(=O)c1nnc(NC(=O)C2CC2)cc1Nc1cccc(C(=O)Nc2ccc(N3CCCC3=O)cc2)c1OC | 55.1% | 8.3 nM | 86.9% |  |  | 
[2H]C([2H])([2H])NC(=O)c1nnc(NC(=O)C2CC2)cc1Nc1cccc(C(=O)Nc2ccc(-c3cccc(=O)[nH]3)cc2)c1OC |  | 55 nM |  |  |  | 
[2H]C([2H])([2H])NC(=O)c1nnc(NC(=O)C2CC2)cc1Nc1cccc(C(=O)Nc2ccc(NC(=O)C3CCCC3)cc2)c1OC |  | 10 nM |  |  |  | 
[2H]C([2H])([2H])NC(=O)c1nnc(NC(=O)C2CC2)cc1Nc1cccc(C(=O)Nc2ccc(N3CCCCC3=O)cc2)c1OC | 53.9% | 1.4 nM | 50.6% |  |  | 
CNC(=O)c1nnc(NC(=O)C2CC2)cc1Nc1cccc(C(=O)Nc2ccc(-c3ccc(F)c(=O)[nH]3)cc2)c1OC |  |  |  | 55.9 °C | 60.1 °C | 
CNC(=O)c1nnc(NC(=O)C2CC2)cc1Nc1cccc(C(=O)Nc2ccc(N3CCCCC3)cc2)c1OC |  |  |  | 58.2 °C | 63.4 °C | 
CNC(=O)c1nnc(NC(=O)C2CC2)cc1Nc1cccc(C(=O)Nc2ccc(-n3cccn3)cc2)c1OC |  |  |  | 56.2 °C | 61.1 °C | 
[2H]C([2H])([2H])NC(=O)c1nnc(NC(=O)C2CC2)cc1Nc1cccc(C(=O)Nc2cccc(-n3ccccc3=O)c2)c1OC |  | 11 nM |  |  |  | 
[2H]C([2H])([2H])NC(=O)c1nnc(NC(=O)C2CC2)cc1Nc1cccc(C(=O)Nc2ccc(-n3ccnc3)cc2)c1OC |  | 51 nM |  |  |  | 
CNC(=O)c1nnc(NC(=O)C2CC2)cc1Nc1cccc(C(=O)Nc2ccc(N3CCCCCC3=O)cc2)c1OC |  |  |  | 59.6 °C | 64.8 °C | 
[2H]C([2H])([2H])NC(=O)c1nnc(NC(=O)C2CC2)cc1Nc1cccc(C(=O)Nc2ccc(N3CCCCCC3=O)cc2)c1OC | 5.63% | 2.5 nM | 0.39% |  |  | 
[2H]C([2H])([2H])NC(=O)c1nnc(NC(=O)C2CC2)cc1Nc1cccc(C(=O)Nc2ccc(N3CCCCC3=O)c(Cl)c2)c1OC | 4.53% | 3.1 nM | 0.06% |  |  | 
CNC(=O)c1nnc(NC(=O)C2CC2)cc1Nc1cccc(C(=O)Nc2ccc(-c3ncn(C)n3)cc2)c1OC |  |  |  | 53.8 °C | 57 °C | 
CNC(=O)c1nnc(NC(=O)C2CC2)cc1Nc1cccc(C(=O)Nc2ccc(N3CCCCC3=O)c(Cl)c2)c1OC |  |  |  | 60.4 °C | 65.5 °C | 

Structure (SMILES) | remaining at 1 h [1] | IC50 [2] | remaining at 1 h [3] | Tm [4] | Tm [5] | Activity [6]
[2H]C([2H])([2H])NC(=O)c1nnc(NC(=O)C2CC2)cc1Nc1cccc(C(=O)Nc2ccc(-c3ncn(CC)n3)cc2)c1OC |  | 43 nM |  |  |  | 
CNC(=O)c1nnc(NC(=O)C2CC2)cc1Nc1cccc(C(=O)Nc2ccc(-c3ncn(C4CC4)n3)cc2)c1OC |  |  |  | 57 °C | 62 °C | Active
[2H]C([2H])([2H])NC(=O)c1nnc(NC(=O)C2CC2)cc1Nc1cccc(C(=O)Nc2ccc(-c3cccnc3)cc2)c1OC |  | 24 nM |  |  |  | 
[2H]C([2H])([2H])NC(=O)c1nnc(Nc2ccccn2)cc1Nc1cccc(C(=O)Nc2ccc(N3CCCCC3=O)cc2)c1OC | 23% | 0.81 nM | 44.5% |  |  | 
CNC(=O)c1nnc(NC(=O)C2CC2)cc1Nc1cccc(C(=O)Nc2ccc(N3CCCCS3(=O)=O)cc2)c1OC |  |  |  | 58.7 °C | 64.8 °C | 
[2H]C([2H])([2H])NC(=O)c1nnc(NC(=O)C2CC2)cc1Nc1cccc(C(=O)Nc2ccc(-n3ccccc3=O)cc2)c1OC | 71.3% | 3.2 nM | 75.8% |  |  | 
CNC(=O)c1nnc(NC(=O)C2CC2)cc1Nc1cccc(C(=O)Nc2ccc(C3CCCNC3=O)cc2)c1OC (centres undefined) |  |  |  | 60.1 °C | 70.2 °C | 
[2H]C([2H])([2H])NC(=O)c1nnc(Nc2ccc(F)cn2)cc1Nc1cccc(C(=O)Nc2ccc(N3CCCCC3=O)cc2)c1OC | 27.5% | 1 nM | 39.9% |  |  | 
CNC(=O)c1nnc(NC(=O)C2CC2)cc1Nc1cccc(C(=O)Nc2ccc(N3CCCCC3=O)cc2)c1OC |  |  |  | 60.6 °C | 66.6 °C | 
CNC(=O)c1nnc(Nc2ccc(F)cn2)cc1Nc1cccc(C(=O)Nc2ccc(N3CCCCC3=O)cc2)c1OC |  |  |  | 66 °C | 68.8 °C | 
CCn1cnc(-c2ccc(NC(=O)c3cccc(Nc4cc(NC(=O)C5CC5)nnc4C(=O)NC)c3OC)cc2)n1 |  |  |  | 54.9 °C | 58.2 °C | 
CNC(=O)c1nnc(NC(=O)C2CC2)cc1Nc1cccc(C(=O)Nc2ccc(-n3ccccc3=O)cc2)c1OC |  |  |  | 56 °C | 62.2 °C | 
[2H]C([2H])([2H])NC(=O)c1nnc(NC(=O)C2CC2)cc1Nc1cccc(C(=O)Nc2ccc(-n3cccn3)cc2)c1OC | 54.9% | 6.4 nM | 78.5% |  |  | 
CNC(=O)c1nnc(NC(=O)C2CC2)cc1Nc1cccc(C(=O)Nc2ccc(-c3cccnc3)cc2)c1OC |  |  |  | 54.1 °C | 55.5 °C | 
CNC(=O)c1nnc(NC(=O)C2CC2)cc1Nc1cccc(C(=O)Nc2ccc(N3CCCCC3=O)cc2F)c1OC |  |  |  | 56.2 °C | 60.8 °C | 
[2H]C([2H])([2H])NC(=O)c1nnc(NC(=O)C2CC2)cc1Nc1cccc(C(=O)Nc2ccc(-c3ccc(F)c(=O)[nH]3)cc2)c1OC | 58.2% | 13 nM | 81.8% |  |  | 
CNC(=O)c1nnc(Nc2ccccn2)cc1Nc1cccc(C(=O)Nc2ccc(N3CCCCC3=O)cc2)c1OC |  |  |  | 64 °C | 66.5 °C | 
[2H]C([2H])([2H])NC(=O)c1nnc(NC(=O)C2CC2)cc1Nc1cccc(C(=O)Nc2ccc(-c3ncn(C)n3)cc2)c1OC |  | 14 nM |  |  |  | 
[2H]C([2H])([2H])NC(=O)c1nnc(NC(=O)C2CC2)cc1Nc1cccc(C(=O)Nc2ccc(N3CCCCC3=O)cc2F)c1OC | 36.6% | 5.7 nM | 37.8% |  |  | 
[2H]C([2H])([2H])NC(=O)c1nnc(NC(=O)C2CC2)cc1Nc1cccc(C(=O)Nc2ccc(N3CCCCS3(=O)=O)cc2)c1OC | 18.2% | 1.9 nM | 3.26% |  |  | 
